For one assay, the system named is Epidermophyton floccosum. Nature of the assay: Antifungal activity against Epidermophyton floccosum after 7 days by tube dilution method. To be noted: 168 h. The assay is classed as functional.
The next assay deals with Pleurotus ostreatus. The assay can be described thus: Antifungal activity against Pleurotus ostreatus after 7 days by tube dilution method. The assay is classed as functional. The following applies: 168 h.
Assay [1] relates to Salmonella enterica subsp. enterica serovar Typhi str. CT18. Nature of the assay: Antibacterial activity against Salmonella typhi by agar well diffusion method. Type of assay: functional, organism-based.
Another assay relates to Enterococcus faecalis. Nature of the assay: Antibacterial activity against Streptococcus faecalis by agar well diffusion method. The assay is classed as functional, organism-based. In general terms: Agar diffusion results depend on both activity and mobility in agar.
The next assay has as its system Shigella boydii. The assay can be described thus: Antibacterial activity against Shigella boydii by agar well diffusion method. Type of assay: functional, organism-based.
For assay [2], the system named is Corynebacterium diphtheriae. Nature of the assay: Antibacterial activity against Corynebacterium diphtheriae by agar well diffusion method. The assay is classed as functional, organism-based.
The next assay relates to Staphylococcus aureus. The assay can be described thus: Antibacterial activity against Staphylococcus aureus by agar well diffusion method. Type of assay: functional, organism-based.
The subject of another assay is Escherichia coli. The assay can be described thus: Antibacterial activity against Escherichia coli by agar well diffusion method. The assay is classed as functional, organism-based.

For three molecules, MIC and Activity results are on record in ChEMBL document CHEMBL1159292, “New antifungal bithienylacetylenes from Blumea obliqua” (1995).

SMILES strings stand for the structures. Converted amounts (≈) assume the structure as drawn. The source made the active and inactive calls. The rule behind the calls is not given here.

In general, MIC refers to the lowest concentration that inhibits growth of the organism. A lower MIC goes with greater potency.

For `COC1=CC(=O)C[C@@H](C)[C@]12Oc1c(Cl)c(OC)cc(OC)c1C2=O` [GRISEOFULVIN], the MIC against Epidermophyton floccosum and in the assay on Pleurotus ostreatus was 250 µg/mL (≈ 709 µM) in each case.

In the case of `Cc1ccc(-c2ccc(C#CCCOC(=O)CC(C)C)s2)s1`, the outcome (in assay [1]; with Enterococcus faecalis; in the assay on Shigella boydii; in assay [2]; in the assay with Staphylococcus aureus; with Escherichia coli) was Active. In addition, the MIC against Epidermophyton floccosum and in the assay with Pleurotus ostreatus was 200 µg/mL (≈ 602 µM) each time.

Turning to `C=CC#Cc1ccc(-c2ccc(COC(=O)CC(C)C)s2)s1`, the MIC in the assay with Epidermophyton floccosum and in the assay on Pleurotus ostreatus was 200 µg/mL (≈ 605 µM) in each case.
